Here are results for one compound from patent US10519211B2, “Compounds as peptidic GLP1/glucagon/GIP receptor agonists” (SANOFI, priority 2016, dated 2019).

Experiment [1] relates to female diet-induced obese (DIO) C57BL/6NHsd mice. Description: Acute and chronic effects after subcutaneous treatment in female diet-induced obese (DIO) mice. Type of experiment: in vivo, mouse. Here is the method:
Female C57BL/6NHsd mice were ordered group housed from Envigo RMS Inc., shipped group housed and remained group housed with shipped cage mates in shoebox caging with wood chip bedding until day 38 of the predose phase. At the study start mice were between 25-26 weeks old.
Mice were housed under vivarium conditions that included a 12 h light/dark cycle (light phase 04:00 AM-4:00 PM), room temperatures between 23-26° C. and a relative humidity between 30-70%. All animals had free access to water and a high fat diet (TD97366) for 16 weeks prior to pharmacological intervention (dosing phase). Feed was replaced with fresh feed weekly until and for the last time on day 38 of the predose phase. During the subsequent dosing phase, approximately 50% of the remaining feed were removed, replaced with fresh feed, and pellets were mixed evenly once per week.
On predose day 38, obese DIO mice were assigned to treatment groups (n=8) to match mean body masses between all DIO groups. An age-matched group with ad libitum access to a rodent maintenance diet (Teklad Global Diets Rodent 2014, pelleted) was included in the study as a lean control group. In the predosing phase from day 32 through 38, all study animals were treated with vehicle (Phosphate Buffered Saline, PBS, Gibco, without CaCl2 and MgCl2) once daily (s.c. approximately 0.2 mL/mouse).
On day 37 of the predose phase, the test article was diluted with PBS to a concentration of 100 μg/mL and aliquots of this stock solution were stored at approximately ≤−60° C. Stock aliquots were thawed for weekly use and thereafter stored in a refrigerator at approximately 4° C. The injected test article solution was prepared fresh once on each dosing day by diluting stock solution with PBS to achieve the desired concentration.
Mice were treated twice daily with a s.c. injection of PBS-vehicle or the test article for 28 days. The morning dosing was initiated and completed between 06:00 and 07:30 AM and the afternoon dosing between 2:00 and 3:30 PM. On day 28 of the dosing phase only the morning dose was administered. The applied volume was 5 ml/kg and the dose was adjusted to the most recent body mass recording of each individual.
Animals had unlimited access to water and feed during the experiment. On day 1 of the dosing phase approximately 5 μL of blood were collected via tail clips at hour 0, prior to the first s.c. dose of PBS-vehicle or test-article as well as 1, 2, 3, 4, 6, and 24 hours post-dose. Animals received the second s.c. dose of PBS-vehicle or test-article 8 hours after the first dose. The 24 hour blood collection of the blood glucose profile was performed prior to dosing on day 2. Glucose measurements were performed in whole blood and in duplicate or triplicate using Aviva glucometers.
Body mass was measured daily approximately between 06:00-07:30 AM from day 32 through 38 of the predosing phase and throughout the 28 days of the dosing phase. During the dosing phase mice were treated twice daily with either a s.c. injection of PBS-vehicle or test article.
To determine whole body fat mass Quantitative Nuclear Magnetic Resonance (QNMR) measurements were performed on predosing day 37 and on day 26 of the dosing phase. During the dosing phase mice were treated twice daily with either a s.c. injection of PBS-vehicle or test article.
On day 28 blood was collected prior to any other inlife activities for determination of plasma insulin concentrations. Then the morning dose was administered and necropsy was performed 4 hours post-dose. For this purpose animals were anesthetized with isoflurane and blood was collected by orbital bleeding.
On day 28 and 4 hours after the morning dose, blood was collected from mice under isoflurane anesthesia as described above. Then mice were killed and livers were collected and weighed.
Data are depicted as means±SEM. […] A One-Way ANOVA and Tukey Test were used for pairwise multiple comparisons of all groups (n=8/group, deviations from group size are indicated). […]

For experiment [2], the target named is T1, human GLP-1 receptor (hGLP-1 R) (Homo sapiens, UniProt P43220).
T1 construct: expressed in transfected cells; host or cells: HEK-293
T1 sequence (P43220 24-463): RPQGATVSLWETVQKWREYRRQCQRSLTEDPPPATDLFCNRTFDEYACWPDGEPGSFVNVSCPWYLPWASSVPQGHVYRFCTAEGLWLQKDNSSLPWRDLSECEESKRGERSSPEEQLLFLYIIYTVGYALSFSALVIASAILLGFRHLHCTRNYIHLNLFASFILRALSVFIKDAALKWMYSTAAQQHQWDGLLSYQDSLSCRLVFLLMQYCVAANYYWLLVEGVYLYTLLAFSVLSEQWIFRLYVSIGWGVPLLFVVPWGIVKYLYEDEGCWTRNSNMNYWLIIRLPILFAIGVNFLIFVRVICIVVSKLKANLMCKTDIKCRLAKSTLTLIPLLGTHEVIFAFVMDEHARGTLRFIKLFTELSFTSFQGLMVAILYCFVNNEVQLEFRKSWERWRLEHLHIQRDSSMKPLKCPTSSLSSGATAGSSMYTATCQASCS
The experiment can be described thus: cAMP response (HTRF) of HEK-293 cells stably expressing human GLP-1 receptor. As to conditions: Table 8; cAMP formation. The experiment is classed as cell-based. Here is the method: cAMP content of cells was determined using a kit from Cisbio Corp. (cat. no. 62AM4PEJ) based on HTRF (Homogenous Time Resolved Fluorescence). For preparation, cells were split into T175 culture flasks and grown overnight to near confluency in medium (DMEM/10% FBS). Medium was then removed and cells washed with PBS lacking calcium and magnesium, followed by proteinase treatment with accutase (Sigma-Aldrich cat. no. A6964). Detached cells were washed and resuspended in assay buffer (1×HBSS; 20 mM HEPES, 0.1% BSA, 2 mM IBMX) and cellular density determined. They were then diluted to 400000 cells/ml and 25 μl-aliquots dispensed into the wells of 96-well plates. For measurement, 25 μl of test compound in assay buffer was added to the wells, followed by incubation for 30 minutes at room temperature.
Potencies of peptidic compounds at the GLP-1, glucagon and GIP receptors were determined by exposing cells expressing human glucagon receptor (hGlucagon R), human GIP receptor (hGIP-R) or human GLP-1 receptor (hGLP-1 R) to the listed compounds at increasing concentrations and measuring the formed cAMP as described in Methods.

The mark [3] stands for this setting: 30 μg/kg s.c. twice daily, day 28, in words.
Setting [4] is: 30 μg/kg s.c. twice daily, in words.
The mark [5] stands for this setting: Table 11, twice-daily 30 μg/kg s.c., day 28, mean ± SEM.

Numbered stars: 1 amine (or outer) side, 2 acyl side, 3 side chain; on linkers, the order of the positions; unused ones are H or OH. Square brackets hold non-standard residues; d marks the D form. Side chains are listed from the residue outwards. Peptide text beside a SMILES is read from it. * marks the point of attachment. γGlu = O=C(O)[C@H](CCC(=O)[*:2])N[*:1]; Palmitoyl = CCCCCCCCCCCCCCCC(=O)*; Aib = CC(C)(N)C(=O)O

By EC50 is commonly meant the midpoint of the concentration-response curve. Read a high EC50 as a less potent agent. As for `CCCCCCCCCCCCCCCC(=O)N[C@@H](CCC(=O)N[C@@H](CCC(=O)NCCCC[C@H](NC(=O)[C@H](CC(C)C)NC(=O)[C@H](CCCCN)NC(=O)[C@H](CO)NC(=O)[C@H](CC(C)C)NC(=O)[C@H](CC(=O)O)NC(=O)[C@H](CO)NC(=O)[C@@H](NC(=O)[C@H](Cc1ccccc1)NC(=O)[C@@H](NC(=O)CNC(=O)[C@H](CCC(N)=O)NC(=O)C(C)(C)NC(=O)[C@@H](N)Cc1c[nH]cn1)[C@@H](C)O)[C@@H](C)O)C(=O)N[C@@H](CCC(=O)O)C(=O)N[C@@H](CCC(=O)O)C(=O)N[C@@H](CCC(N)=O)C(=O)N[C@@H](CCCNC(=N)N)C(=O)N[C@@H](CCC(N)=O)C(=O)NC(C)(C)C(=O)N[C@@H](CCC(=O)O)C(=O)N[C@@H](Cc1ccccc1)C(=O)N[C@H](C(=O)N[C@@H](CCC(=O)O)C(=O)N[C@@H](Cc1c[nH]c2ccccc12)C(=O)N[C@@H](CC(C)C)C(=O)N[C@@H](CCCCN)C(=O)N[C@@H](C)C(=O)N[C@H](C)C(=O)NCC(=O)N1CCC[C@H]1C(=O)N1CCC[C@H]1C(=O)N[C@@H](CO)C(=O)NC(C)(C)C(=O)N[C@@H](CCCCN)C(=O)N1CCC[C@H]1C(=O)N1CCC[C@H]1C(=O)N1CCC[C@H]1C(=O)N[C@@H](CCCCN)C(N)=O)[C@@H](C)CC)C(=O)O)C(=O)O` [SEQ ID NO: 10, H-Aib-Q-G-T-F-T-S-D-L-S-K-L-K[gGlu-gGlu-Palm]-E-E-Q-R-Q-Aib-E-F-I-E-W-L-K-A-dAla-G-P-P-S-Aib-K-P-P-P-K-NH2] (H-H[Aib]QGTFTSDLSKLK([γGlu-γGlu-Palmitoyl])EEQRQ[Aib]EFIEWLKA[dA]GPPS[Aib]KPPPK-NH2), in experiment [1] (30 μg/kg s.c. twice daily, 28 days, in words), the “Body mass compared to the DIO-Vehicle group” value is given as “statistically significant decrease in body mass”. For the same compound, in experiment [1] (setting [3]), the “Plasma insulin concentrations compared to DIO vehicle” value is “statistically significant reduction in plasma insulin concentrations” and the “Plasma total cholesterol concentrations compared to DIO vehicle” value is “statistically significant reduction in plasma total cholesterol concentrations”. Besides, in experiment [1] (setting [4]), the “Liver mass on day 28 compared to DIO animals treated with vehicle” value is given as “statistically significantly lower liver mass” and the “Plasma alanine aminotransferase concentration on day 28 compared to DIO vehicle” value is “statistically significantly lower plasma alanine aminotransferase concentration”. Also, the “24 hour blood glucose profile following first treatment” value in experiment [1] (30 μg/kg s.c., day 1, fed DIO mice, vs DIO control, in words) is reported as “decrease in blood glucose concentrations below concentrations observed in DIO control mice”. Also, the “Body mass change” value in experiment [1] (Table 11, twice-daily 30 μg/kg s.c., 28 days, mean ± SEM) is -7.14 ± 0.64 g. Also, in experiment [1] (Table 11, twice-daily 30 μg/kg s.c., QNMR predose vs day 26, mean ± SEM), the “Whole body fat mass change” value was -6.48 ± 0.90 g. In experiment [1] (setting [5]), the “Terminal liver mass (g)” value is given as “+1.07 ± 0.04 g”, the “Terminal plasma alanine aminotransferase (U/L)” value is “+56.75 ± 4.65 U/L”, the “Terminal plasma insulin (U/L)” value is reported as “+35.81 ± 2.79 U/L” and the “Terminal plasma total cholesterol (mmol/L)” value is “+4.28 ± 0.15 mmol/L”. The compound also displayed an EC50 in experiment [2] of 2.4 pM.
